# Earlier results in patent US20210023029A1, “EDASALONEXENT DOSING REGIMEN FOR TREATING MUSCULAR DYSTROPHY” (Catabasis Pharmaceuticals, Inc., priority 2017, published 2021).
# System: mdx mice
# Details: long-term studies on mdx mice; cited from earlier work
smiles,measurement,value
CC/C=C\C/C=C\C/C=C\C/C=C\C/C=C\CCCC(=O)NCCNC(=O)c1ccccc1O [CAT-1041],"muscle function, skeletal muscle weight and muscle fibrosis","preserves muscle function, increases skeletal muscle weight, and reduces muscle fibrosis"
